From patent US20220356147A1, “COMPOUNDS AND METHODS FOR POTENTIATING COLISTIN ACTIVITY” (University of Notre Dame du Lac, priority 2019, published 2022)
Where two headings read alike, the source gives them in different places.

Key:
[1] = test system: A. baumannii 4106 (AB4106); experiment: Broth microdilution, colistin potentiation; format: cell-based
In short: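 AB4106 (1.04×10^6 CFU/mL) and KPB9 (1.96×10^6 CFU/mL) cultured 4–6 h, diluted in CAMHB, pre-dosed with compound, then colistin serially 2-fold diluted; compound-free and compound-alone controls included. Incubated stationary at 37° C. MIC = lowest colistin concentration giving 90% growth inhibition versus untreated wells.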

AB 4106 [2] = experiment: Broth microdilution, standalone MIC of compound; format: cell-based, A. baumannii; conditions: Acinetobacter baumannii, 16 h, read-out: MIC of compound alone, AB 4106
In short: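 Bacteria grown 4–6 h in CAMHB, subcultured to 1.04×10^6 CFU/mL, then exposed to twofold serial dilutions of compound in CAMHB and incubated stationary at 37 C. MIC taken as lowest concentration giving 90% growth inhibition versus untreated wells.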

4T1 cells = experiment: Cell line toxicity (MTT); format: cell-based; conditions: mouse, 18 h
Description: Cell line Toxicity: 4T1 cells (ATCC Manassas, Va.) were plated at a density of 1×10^4 cells/well in 96-well plates in Roswell Park Memorial Institute Media 1640 (RPMI)
(Gibco, Gaithersburg, MD) supplemented with 10% Fetal Bovine Serum (Gibco), 2 mM GlutaMAX (Gibco) and 50 μM 2-mercaptoethanol (Sigma Aldrich, St. Louis, Mo.) and incubated at 37 C under a 5% CO2 atmosphere in the dark for 18 h. Cell cultures were treated with serial dilutions of compounds in the presence or absence of 1 μg/mL colistin (3 replicates per condition) and incubated for an additional 18 hours. The following control conditions were used: media only (blank), 1% Triton X100 (0% cell viability), 0.5% DMSO (100% cell viability). Each condition was then treated with 10% volume of a 5 mg/mL solution of 3-(4,5-dimethylthiazol-2-yl)-2,5-diphenyltetrazolium bromide (MTT) (Sigma Aldrich) in sterile filtered 1X phosphate buffered saline (PBS) and incubated for 2 h. at 37 C in 5% CO2, after which the media was aspirated and the resulting formazan crystals were resuspended in 100 μL acidified (4 mM HCl) isopropanol. The 96-well plate was then read at 540 nm on a FLUOstar Optima (BMG Labtech Cary, NC) microplate reader. Cell viability was calculated as a percentage using the two previously mentioned controls.

AB 4106 [3] = experiment: Time-kill curves with colistin; format: cell-based, A. baumannii; conditions: 5 μM compound + 0.5, 4 or 32 μg/mL colistin, FIG. 1
Description: (§1) Time—kill Curves: Strains were cultured overnight in CAMHB and subcultured to 1.04×10^6 CFU/mL for AB 4106 and 1.96×10^6 CFU/mL for KP B9 in fresh CAMHB. The subculture was then transferred to culture tubes in 3 mL aliquots, which were dosed with adjuvant, colistin, or adjuvant plus colistin. One aliquot was not dosed to serve as a control. All samples were then incubated at 37 C with shaking. At 2, 4, 6, 8, and 24-hour time points, 100 μL was taken from each sample and ten-fold diluted in CAMHB up to 7 times. 100 μL of diluted culture was plated on LB (Lennox) agar and incubated at 37 C overnight. The total number of bacterial colonies on each plate was determined using a SphereFlash colony counter (NEUTEC Group Inc.).

KP B9 = experiment: Time-kill curves with colistin; format: cell-based, K. pneumoniae; conditions: 5 μM compound + 0.5, 4 or 32 μg/mL colistin, FIG. 2
Description: as §1

AB 3941 = experiment: Colistin potentiation, colistin-resistant isolate panel; format: cell-based, A. baumannii; conditions: compound at 5 μM
AB 3942 = experiment: as above; format: cell-based, A. baumannii; conditions: compound at 5 μM
AB 4112 = experiment: as above; format: cell-based, A. baumannii; conditions: compound at 5 μM
AB 4119 = experiment: as above; format: cell-based, A. baumannii; conditions: compound at 5 μM
AB 17978 mcr-1 = experiment: as above; format: cell-based, A. baumannii; conditions: compound at 5 μM
[4] = test system: A. baumannii, K. pneumoniae, and Escherichia coli; experiment: Earlier finding: suppression of colistin resistance by IMD-0354; format: cell-based; conditions: 5 μM (1.9 μg/mL) IMD-0354
[5] = compound at 5 μM, colistin alone 2048 μg/mL

Row | MIC (AB 4106 [2]; standalone, no colistin) | SMILES | Colistin MIC fold reduction, AB 4106 ([1]; compound at 1 μM) | Colistin MIC fold reduction, AB 4106 ([1]; compound at 3 μM) | Colistin MIC fold reduction, AB 4106 [1, 5] | no measurable toxicity up to (4T1 cells) | Time-kill: potentiation of colistin activity (AB 4106 [3]) | Time-kill: potentiation of colistin activity (KP B9) | MIC (AB 4106 [2]) | Colistin MIC fold reduction, AB 3941 (AB 3941) | Colistin MIC fold reduction, AB 3942 (AB 3942) | Colistin MIC fold reduction, AB 4112 (AB 4112) | Colistin MIC fold reduction, AB 4119 (AB 4119) | Colistin MIC fold reduction, AB 17978 mcr-1 (AB 17978 mcr-1) | reduction of the MIC of colistin [4]
1 | > 200 µM | O=C(Nc1cc(Cl)cc(Cl)c1)c1cc(Cl)ccc1O [Compound 22] | 512 fold | 1024 fold | 1024 fold | > 200 µM | significant potentiation of colistin activity | significant potentiation of colistin activity | – | – | – | – | – | – | –
2 | – | O=C(Nc1cc(C(F)(F)F)cc(C(F)(F)F)c1)c1cc(Cl)ccc1O [IMD-0354, reference compound] | 256 fold | 512 fold | 1024 fold | – | – | – | 50 µM | (512) fold | (≥2048) fold | (1024) fold | (256) fold | (128) fold | ≥ 4096 fold
